Test results reported in patent publication US6518279B2, “Cyclopentanone dihydropyridine compounds useful as potassium channel openers” (Abbott Laboratories, priority 1999, dated 2003).
pEC50: −log10 of the molar value. ≈ marks a conversion by molar mass, not a printed value. Where two headings read alike, the source gives them in different places.

Assays:
[1] = Aqueous solubility, 50 mM NaH2PO4 buffers, reverse-phase HPLC; assay type: physicochemical; conditions: aqueous buffer, thermodynamic from solid, shaking 60 hours, room temperature
Protocol: Aqueous solubilities were determined by shaking 60 hours at room temperature in 50 mM NaH2PO4 buffers at pH's 6.5 and 7.4. Assays were performed using reverse-phase HPLC. The solubilities are expressed in nanomoles per milliliter in Table 4.

[2] = system: guinea-pig urinary bladder (GPB) cells; assay: Membrane hyperpolarization (MHP) assay, potassium channel opening activity, DiBAC(4)3 / FLIPR; assay type: cell-based; conditions: Cavia porcellus; for Emax: maximal steady-state hyperpolarization in GPB cells, relative to 10 μM P1075 (100%), read-out: Maximal Response (% P1075); for pEC50: membrane hyperpolarization in GPB cells
Protocol: Compounds were evaluated for potassium channel opening activity using primary cultured guinea-pig urinary bladder (GPB) cells.
For the preparation of urinary bladder smooth muscle cells, urinary bladders were removed from male guinea-pigs (Hartley, Charles River, Wilmington, Mass.) weighing 300-400 g and placed in ice-cold Ca^2+-free Krebs solution (Composition, mM: KCl, 2.7; KH2PO4, 1.5; NaCl, 75; Na2HPO4, 9.6; Na2HPO4·7H2O, 8; MgSO4, 2; glucose, 5; HEPES, 10; pH 7.4). Cells were isolated by enzymatic dissociation as previously described with minor modifications (Klockner, U. and Isenberg, G., Pflugers Arch. (1985), 405, 329-339), hereby incorporated by reference. The bladder was cut into small sections and incubated in 5 mL of the Kreb's solution containing 1 mg/mL collagenase (Sigma, St. Louis, Mo.) and 0.2 mg/mL pronase (Calbiochem, La Jolla, Calif.) with continuous stirring in a cell incubator for 30 minutes. The mixture was then centrifuged at 1300×g for 5 minutes, and the pellet resuspended in Dulbecco's PBS (GIBCO, Gaithersburg, Md.) and recentrifuged to remove residual enzyme. The cell pellet was resuspended in 5 mL growth media (composition: Dulbecco's modified Eagle's medium supplemented with 10% fetal bovine serum, 100 units/mL penicillin, 100 units/mL streptomycin and […] amphotericin B) and further dissociated by pipetting the suspension through a flame-polished Pasteur pipette and passing it through a polypropylene mesh membrane (Spectrum, Houston, Tex.). The cell density was adjusted to 100,000 cells/mL by resuspension in growth media. Cells were plated in clear-bottomed black 96-well plates (Packard) for membrane potential studies at a density of 20,000 cells/well and maintained in a cell incubator with 90% air: 10% CO2 until confluent. Cells were confirmed to be of smooth muscle type by cytoskeletal staining using a monoclonal mouse anti human-α-smooth muscle actin (Biomeda, Foster City, Calif.)
Functional activity at potassium channels was measured by evaluating changes in membrane potential using the bis-oxonol dye DiBAC(4)3 (Molecular Probes) in a 96-well cell-based kinetic assay system, Fluorescent Imaging Plate Reader (FLIPR) (K. S. Schroeder et al., J. Biomed. Screen., v. 1 pp. 75-81 (1996)), hereby incorporated by reference. DiBAC(4)3 is an anionic potentiometric probe which partitions between cells and extracellular solution in a membrane potential-dependent manner. With increasing membrane potential (for example, K^+ depolarization), the probe further partitions into the cell; this is measured as an increase in fluorescence due to dye interaction with intracellular lipids and proteins. Conversely, decreasing membrane potential (hyperpolarization by potassium channel openers) evokes a decrease in fluorescence.
Confluent guinea-pig urinary bladder cells cultured in black clear-bottomed 96-well plates were rinsed twice with […] assay buffer (composition, mM: HEPES, 20; NaCl, 120; KCl, 2; CaCl2, 2; MgCl2, 1; glucose, 5; pH 7.4 at 25° C.) containing 5 μM DiBAC(4)3 and incubated with […] of the buffer in a cell incubator for 30 minutes at 37° C. to ensure dye distribution across the membrane. After recording the baseline fluorescence for 5 minutes, the reference or test compounds, prepared at 10 times the concentration in the assay buffer, were added directly to the wells. Changes in fluorescence were monitored for an additional 25 minutes. Hyperpolarization responses were corrected for any background noise and were normalized to the response observed with 10 μM of the reference compound P1075 (assigned as 100%), a potent opener of smooth muscle KATP channels (Quast et al., Mol. Pharmacol., v. 43 pp. 474-481 (1993)), hereby incorporated by reference.
Routinely, five concentrations of P1075 or test compounds (log or half-log dilutions) were evaluated and the maximal steady-state hyperpolarization values (expressed as % relative to P1075) plotted as a function of concentration. […]

[3] = system: Landrace pig bladder strips; assay: Functional potassium channel opening activity in isolated bladder strips (field-stimulated twitch); conditions: for Index: ED50 of P1075 divided by ED50 of test agonist in a given tissue, averaged; for EC50: Sus scrofa, negative logarithm of ED50, Landrace pig bladder strips, read-out: pD2 (converted); for Efficacy (% P1075): maximal efficacy on the stimulated twitch, Landrace pig bladder strips
Protocol: Compounds were evaluated for functional potassium channel opening activity using tissue strips obtained from Landrace pig bladders.
Landrace pig bladders were obtained from female Landrace pigs of 9-30 kg. Landrace pigs were euthanized with an intraperitoneal injection of pentobarbital solution, Somlethal®, J. A. Webster Inc., Sterling Mass. The entire bladder was removed and immediately placed into Krebs Ringer bicarbonate solution (composition, mM: NaCl, 120; NaHCO3, 20; dextrose, 11; KCl, 4.7; CaCl2, 2.5; MgSO4, 1.5; KH2PO4, 1.2; K2EDTA, 0.01, equilibrated with 5% CO2/95% O2 pH 7.4 at 37° C.). Propranolol (0.004 mM) was included in all of the assays to block β-adrenoceptors. The trigonal and dome portions were discarded. Strips 3-5 mm wide and 20 mm long were prepared from the remaining tissue cut in a circular fashion. The mucosal layer was removed. One end was fixed to a stationary glass rod and the other to a Grass FT03 transducer at a basal preload of 1.0 gram. Two parallel platinum electrodes were included in the stationary glass rod to provide field stimulation of 0.05 Hz, 0.5 milli-seconds at 20 volts. This low frequency stimulation produced a stable twitch response of 100-500 centigrams. Tissues were allowed to equilibrate for at least 60 minutes and primed with 80 mM KCl. A control concentration response curve (cumulative) was generated for each tissue using the potassium channel opener P1075 as the control agonist. […] After a 60 minute rinsing period, a concentration response curve (cumulative) was generated for the test agonist in the same fashion as that used for the control agonist P1075. The maximal efficacy of each compounds (expressed as % relative to P1075) is reported. The amount of agent necessary to cause 50% of the agent's maximal response (ED50) was calculated using “ALLFIT” (DeLean et al., Am. J. Physiol. 235, E97 (1980)), hereby incorporated by reference, and agonist potencies were expressed as pD2 (the negative logarithm). Agonist potencies were also expressed as an index relative to P1075. The index was calculated by dividing the ED50 for P1075 by the ED50 for the test agonist in a given tissue. Each tissue was used for only one test agonist, and the indices obtained from each tissue were averaged to provide an average index of potency.

bladder contractions = assay: In-vivo bladder efficacy protocol (isovolumetric contractions model); design: species or system rat; conditions: dose reducing area under the curve of bladder contractions by 30%, iv, anesthetized male CD rats
Description: In-vivo bladder efficacy protocol (isovolumetric contractions model)
Male CD rats (400-450 g) were anesthetized with urethane (0.6 g/kg ip+0.6 g/kg sc). The left femoral artery and vein were cannulated with polyethylene (PE-50) tubing for the measurement of arterial pressure and test compound administration respectively. A third polyethylene catheter (PE-60) was inserted 3-4 mm into the apex of the bladder dome and secured using a 5-0 silk purse string suture. The bladder was emptied via this catheter and additionally by applying slight manual pressure on the lower abdomen. The urinary catheter was connected using a Y-tube connector to both a pressure transducer and a syringe pump. […] After the contractions stabilized to a consistent pattern, bladder pressure and arterial pressure were monitored for 20 minutes before and after a dose of the vehicle (equal parts of β-cyclodextrin stock solution (100 g β-cyclodextrin dissolved in 200 ml) and sterile water) alone. […] Mean arterial pressure and area under the curve of the bladder contractions were determined from the respective waveforms using a Modular Instruments, Inc. computerized data acquisition system and averaged over the last ten minutes of each twenty minute period. […]
Example 3, of the present invention (Table 3, FIG. 1), was dosed at 0.01, 0.1 and 1 μmol/kg. The AUC ED30 for Example 3 was determined to be 0.1 μmol/kg.

[4] = pH 6.5, 50 mM NaH2PO4 buffer, read-out: Aqueous solubility pH 6.5
[5] = pH 7.4, 50 mM NaH2PO4 buffer, read-out: Aqueous solubility pH 7.4

SMILES	solubility at 60 h [1, 4]	solubility at 60 h [1, 5]	Emax [2]	pEC50 [2]	Index [3]	EC50 [3]	Efficacy (% P1075) [3]	AUC ED30 (bladder contractions)	melting point	Effect on stimulated twitch ([3]; 10^−9 to 10^−5 M, cumulative, dose dependent)
O=C1CCC2=C1C(c1ccc(F)c(Br)c1)C1=C(CCC1=O)N2 [Example 1, 8-(3-Bromo-4-fluorophenyl)-2,3,4,5,6,8-hexahydrodicyclopenta[b,e]pyridine-1,7-dione]	205 µM (≈ 74.3 µg/mL)	227 µM (≈ 82.2 µg/mL)	102%	7.15	0.48	0.158 µM	98 % P1075			
N#Cc1cccc(C2C3=C(CCC3=O)NC3=C2C(=O)CC3)c1 [Example 2, 8-(3-Cyanophenyl)-2,3,4,5,6,8-hexahydrodicyclopenta[b,e]pyridine-1,7-dione]	1300 µM (≈ 377 µg/mL)	1290 µM (≈ 375 µg/mL)	65%	5.28	0.017	6.31 µM	96 % P1075			
O=C1CCC2=C1C(c1ccc(Cl)c([N+](=O)[O-])c1)C1=C(CCC1=O)N2 [Example 3, 8-(4-Chloro-3-nitrophenyl)-2,3,4,5,6,8-hexahydrodicyclopenta[b,e]pyridine-1,7-dione]	129 µM (≈ 44.5 µg/mL)	129 µM (≈ 44.5 µg/mL)	113%	7.28	0.35	0.251 µM	98 % P1075	0.1 µmol/kg		
O=C1CCC2=C1C(c1cccc([N+](=O)[O-])c1)C1=C(CCC1=O)N2 [Example 4, 8-(3-Nitrophenyl)-2,3,4,5,6,8-hexahydrodicyclopenta[b,e]pyridine-1,7-dione]	158 µM (≈ 49 µg/mL)	164 µM (≈ 50.9 µg/mL)	123%	6.47						
O=C1CCC2=C1C(c1ccc(F)c(Cl)c1)C1=C(CCC1=O)N2 [Example 5, 8-(3-Chloro-4-fluorophenyl)-2,3,4,5,6,8-hexahydrodicyclopenta[b,e]pyridine-1,7-dione]			72%	6.85						
O=C1CCC2=C1C(c1ccc(Cl)c(Cl)c1)C1=C(CCC1=O)N2 [Example 6, 8-(3,4-Dichlorophenyl)-2,3,4,5,6,8-hexahydrodicyclopenta[b,e]pyridine-1,7-dione]			94%	7.00						
O=C1CCC2=C1C(c1ccc3nonc3c1)C1=C(CCC1=O)N2 [Example 7, 8-(2,1,3-benzoxadiazol-5-yl)-2,3,4,5,6,8-hexahydrodicyclopenta[b,e]pyridine-1,7-dione]			98%	6.89					272 to 273 °C	
O=C1CCC2=C1C(c1ccc(F)c(I)c1)C1=C(CCC1=O)N2 [Example 8, 8-(3-Iodo-4-fluorophenyl)-2,3,4,5,6,8-hexahydrodicyclopenta[b,e]pyridine-1,7-dione]			93%	7.89						
O=C1C=CC2=C1C(c1ccc(F)c(Br)c1)C1=C(CCCC1=O)N2 (centres unmarked) [Example 9, 9-(3-bromo-4-fluorophenyl)-5,6,7,9-tetrahydro-1H-cyclopenta[b]quinoline-1,8(4H)-dione]			100%	7.20						
CC1=C(C(=O)O)C(c2ccc(F)c(Br)c2)C2=C(CCC2=O)N1 (centres unmarked) [Example 10, 4-(3-bromo-4-fluorophenyl)-2-methyl-5-oxo-4,5,6,7-tetrahydro-1H-cyclopenta[b]pyridine-3-carboxylic acid]			104%	5.57					211 to 214 °C	
CCC(C)(C)N=C(NC#N)Nc1cccnc1 [Example P1075, reference compound]										completely eliminated the stimulated twitch
